Reference: ChEMBL document CHEMBL6153114, “Property-Based Design of Xanthine Derivatives as Potent and Orally Available TRPC4/5 Inhibitors for Depression and Anxiety” (J Med Chem, 2025)

Assays:
[1] = in vivo; settings: ICR, mouse, plasma, po, 10 mg/kg
[2] = in vitro; settings: rat, liver microsomes
[3] = in vitro; settings: mouse, liver microsomes
[4] = in vitro; settings: human, liver microsomes
[5] = in vivo; settings: ICR, mouse, plasma, po, 10 mg/kg; remark: listed apart in the source

SMILES	concentration at 4 h [1] [ng/mL]	half-life at 1 h, 1 µM [2] [min]	half-life at 1 h, 1 µM [3] [min]	half-life at 1 h, 1 µM [4] [min]	concentration at 1 h [5] [ng/mL]
Cn1c(=O)n(CCCO)c(=O)c2c1nc(Oc1cccc(Cl)c1)n2Cc1ccc(Cl)cc1	398	4	12	117	802
Cn1c(=O)n(CCCO)c(=O)c2c1cc(C1CC1C1CCCC1)n2Cc1ccc(Cl)cc1 (stereo unspecified)		1	4	12	
Cn1c(=O)n(CCCO)c(=O)c2c1cc(/C=C/c1ccc(Cl)cc1)n2Cc1ccc(Cl)cc1		40	115	141	
